Measurements as given in paper PMC3155282 (ACS Medicinal Chemistry Letters, 2011).

Legend:
CYP3A4 [1] = molecular target: T1, CYP3A4 (Homo sapiens, UniProt P08684); settings: recombinant enzyme
CYP2D6 = CYP2D6 (Homo sapiens, UniProt P10635); settings: recombinant enzyme
[2] = test system: others of recombinant CYP1A2, 2B6, 2C8, 2C9, 2C19, 2D6 and 3A4; settings: recombinant enzyme
CYP2D6 and 2J2 = settings: catalyzed by CYP2D6 and 2J2; cited from earlier work
cytochrome P450s = settings: cited from earlier work
CYP3A4 [3] = molecular target: T1, CYP3A4; settings: cited from earlier work
CYP2C8 = molecular target: T2, CYP2C8 (Homo sapiens, UniProt P10632); experiment: P450 isoform phenotyping assay, parent compound depletion, recombinant CYP2C8; type: in vitro ADME; settings: recombinant CYP2C8, 1 µM compound
T2 sequence (P10632 1-490): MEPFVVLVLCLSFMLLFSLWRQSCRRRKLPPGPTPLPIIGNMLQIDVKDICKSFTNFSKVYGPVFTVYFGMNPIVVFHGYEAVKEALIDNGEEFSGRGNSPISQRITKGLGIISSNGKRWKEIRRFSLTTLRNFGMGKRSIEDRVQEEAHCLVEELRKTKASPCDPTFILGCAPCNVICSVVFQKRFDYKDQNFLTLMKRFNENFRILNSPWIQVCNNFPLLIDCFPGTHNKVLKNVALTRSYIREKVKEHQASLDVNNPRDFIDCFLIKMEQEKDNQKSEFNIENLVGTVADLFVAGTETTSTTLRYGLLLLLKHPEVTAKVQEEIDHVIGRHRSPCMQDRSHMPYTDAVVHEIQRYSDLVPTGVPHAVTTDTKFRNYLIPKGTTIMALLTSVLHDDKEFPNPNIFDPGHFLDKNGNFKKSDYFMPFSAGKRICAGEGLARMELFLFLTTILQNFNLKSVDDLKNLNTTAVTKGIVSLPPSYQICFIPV

CYP2D6, sequence (P10635 whole entry): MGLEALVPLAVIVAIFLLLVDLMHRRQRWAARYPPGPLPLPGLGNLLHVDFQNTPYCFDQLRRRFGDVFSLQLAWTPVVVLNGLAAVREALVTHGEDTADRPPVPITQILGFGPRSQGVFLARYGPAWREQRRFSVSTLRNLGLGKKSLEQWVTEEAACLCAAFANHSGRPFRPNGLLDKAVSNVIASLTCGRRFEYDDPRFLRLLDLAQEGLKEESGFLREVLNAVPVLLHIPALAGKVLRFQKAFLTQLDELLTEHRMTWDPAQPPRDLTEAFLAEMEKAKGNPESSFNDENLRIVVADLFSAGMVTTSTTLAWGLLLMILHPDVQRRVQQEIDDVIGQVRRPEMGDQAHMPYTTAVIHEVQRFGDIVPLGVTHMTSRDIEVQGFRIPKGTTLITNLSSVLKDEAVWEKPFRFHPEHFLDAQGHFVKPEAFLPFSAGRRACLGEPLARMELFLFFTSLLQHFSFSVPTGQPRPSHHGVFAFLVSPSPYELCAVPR
T1 sequence (P08684 whole entry): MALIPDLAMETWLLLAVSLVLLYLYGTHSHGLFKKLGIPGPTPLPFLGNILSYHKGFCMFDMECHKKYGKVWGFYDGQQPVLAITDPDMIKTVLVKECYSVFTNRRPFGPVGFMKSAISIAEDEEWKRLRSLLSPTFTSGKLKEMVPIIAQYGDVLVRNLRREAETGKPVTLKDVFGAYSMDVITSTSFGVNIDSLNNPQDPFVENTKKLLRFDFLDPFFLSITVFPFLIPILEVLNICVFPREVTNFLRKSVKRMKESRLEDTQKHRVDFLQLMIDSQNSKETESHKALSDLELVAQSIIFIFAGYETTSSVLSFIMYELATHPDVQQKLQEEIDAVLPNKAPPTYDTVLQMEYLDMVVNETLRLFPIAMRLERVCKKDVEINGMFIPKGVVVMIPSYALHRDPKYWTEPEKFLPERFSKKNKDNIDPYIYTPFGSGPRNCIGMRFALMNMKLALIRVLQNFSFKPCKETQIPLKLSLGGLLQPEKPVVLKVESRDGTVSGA

| SMILES | half-life (t1/2) of parent compound depletion from phenotyping assay, 3A4 (CYP3A4 [1]) | half-life (t1/2) of parent compound depletion from phenotyping assay, 2D6 (CYP2D6) | half-life (t1/2) of parent compound depletion from phenotyping assay, others [2] | conversion from astemizole to O-desmethylastemizole (CYP2D6 and 2J2) [%] | N-dealkylation (major or minor pathway) (cytochrome P450s) | conversion from astemizole to benzimidazole hydroxylated metabolite (CYP3A4 [3]) [%] | half-life (t1/2) of parent compound depletion from phenotyping assay, 2C8 (CYP2C8) | contribution of CYP2D6 to metabolism (CYP2D6) |
| --- | --- | --- | --- | --- | --- | --- | --- | --- |
| COc1ccc(CCN2CCC(Nc3nc4ccccc4n3Cc3ccc(F)cc3)CC2)cc1 [astemizole] | 3A4 (1.5 m), 2D6 (4.0 m), others (>60 m) | 3A4 (1.5 m), 2D6 (4.0 m), others (>60 m) | 3A4 (1.5 m), 2D6 (4.0 m), others (>60 m) | 67 | minor | 25 | – | – |
| CN1CCC(N(Cc2ccccc2)c2ccccc2)CC1 [bamipine] | – | – | – | – | major | – | – | – |
| O=C(CCCN1CCC(n2c(O)nc3ccccc32)CC1)c1ccc(F)cc1 [benperidol] | 3A4 (3.3 m), 2D6 (10.4 m), 2C8 (43.8 m), others (>60 m) | 3A4 (3.3 m), 2D6 (10.4 m), 2C8 (43.8 m), others (>60 m) | 3A4 (3.3 m), 2D6 (10.4 m), 2C8 (43.8 m), others (>60 m) | – | major | – | 3A4 (3.3 m), 2D6 (10.4 m), 2C8 (43.8 m), others (>60 m) | – |
| COc1cc(N)c(Cl)cc1C(=O)NC1CCN(CCCOc2ccc(F)cc2)CC1OC (centres unmarked) [cisapride] | – | – | 3A4 (<5 m), others (>60 m) | – | major | – | – | – |
| COc1cc(N)c(Cl)cc1C(=O)NC1CCN(Cc2ccccc2)CC1 [clebopride] | 3A4 (<5 m), others (>60 m) | – | 3A4 (<5 m), others (>60 m) | – | major | – | – | – |
| O=C(NC1CCN(CCc2c[nH]c3ccccc23)CC1)c1ccccc1 [indoramin] | 2D6 (<5 m), 3A4 (16.0 m), others (>60 m) | 2D6 (<5 m), 3A4 (16.0 m), others (>60 m) | 2D6 (<5 m), 3A4 (16.0 m), others (>60 m) | – | minor | – | – | contributed significantly |
| O=c1[nH]c2ccccc2n1C1CCN(CCCC(c2ccc(F)cc2)c2ccc(F)cc2)CC1 [pimozide] | 3A4 (2.7 m), 2D6 (3.2 m), others (>60 m) | 3A4 (2.7 m), 2D6 (3.2 m), others (>60 m) | 3A4 (2.7 m), 2D6 (3.2 m), others (>60 m) | – | major | – | – | – |
| CN(c1nc2ccccc2s1)C1CCN(CC(O)COc2ccc(F)cc2)CC1 (centres unmarked) [sabeluzole] | 2D6 (1.5 m), 3A4 (<5.0 m), others (>60 m) | 2D6 (1.5 m), 3A4 (<5.0 m), others (>60 m) | 2D6 (1.5 m), 3A4 (<5.0 m), others (>60 m) | – | minor | – | – | contributed significantly |
| O=C(CCCN1CCC(n2c(=S)[nH]c3ccccc32)CC1)c1ccc(F)cc1 [timiperone] | – | – | – | – | major | – | – | – |
